Measured values from article PMC10303920, “Competition between skin antimicrobial peptides and commensal bacteria in type 2 inflammation enables survival of S. aureus” (Cell reports, 2023).

Legend:
[1] = test system: CoNS-AM− strains of S. epidermidis or S. hominis; assay: Bacterial survival on pigskin, non-antibiotic-producing CoNS; assay type: cell-based; conditions: LL-37 2.5 nmol on 2.5 × 2.5 cm pigskin sheet, 1 × 10^6 CFU, 30°C, 24 h; Figure 4F
Procedure: Fresh-frozen pigskin sheets were obtained from Loretta Tomlin Animal Technologies (Livermore, CA) and sanitized by surgical brush with 3% chloroxylenol. The skin sheet was cut into 2.5 cm × 2.5 cm and rinsed with sterile PBS more than 20 times to remove chloroxylenol residue. Synthetic LL-37 (2.5nanomol/50μL H2O) or equal volume of vehicle was applied to the surface of sanitized pig skin. Antibiotic-producing or non-antibiotic-producing strain of CoNS (1 × 10^6 CFU/10μL PBS) was applied on the pigskin. Pigskin sheet was placed on a 6-well plate and incubated at 30°C for 24 h. The entire skin sheet was rubbed 50 times with nylon foam swab (Puritan) pre-moisturized with PBS to collect bacteria on the skin surface. Swab sample was suspended in 1mL of 85% TSB/15% glycerol and frozen until analysis.

ShA9-ΔLanti = assay: Transmission electron microscopy of ShA9-ΔLanti; assay type: cell-based, Staphylococcus hominis; conditions: 30°C, 30 min, Figure 5C
Procedure: To observe the effect of synergistic antimicrobial action between host AMP and lantibiotic on ShA9, ShA9-DLanti mutant were incubated in 90% RPMI media/10% TSB containing LL-37 ([…]), ammonium sulfate precipitation fraction of conditioned media from ShA9-WT (25% calculated from the original volume of media), or combination at 30°C for 30 min. Bacterial cells were washed with PBS twice and immediately fixed by re-suspending in modified Karnovsky’s fixative for 4 h, followed by 1% osmium tetroxide in 0.1 M cacodylate buffer for 1 h on ice. The cells were stained with 2% uranyl acetate for 1 h on ice, dehydrated in a graded series of ethanol (50–100%), washed with acetone, and then embedded with Durcupan. Sections (60 nm) were post-stained with 2% uranyl acetate for 5 min and Sato’s lead stain for 1 min. Grids were viewed using a JEOL JEM-1400Plus (JEOL, Peabody, MA) transmission electron microscope and photographed using a Gatan OneView 4 K digital camera (Gatan, Pleasanton, CA).

ShA9-WT and ShA9-ΔLanti = assay: Growth inhibition of ShA9-WT and ShA9-ΔLanti by human and murine AMPs (OD600); assay type: cell-based, Staphylococcus hominis; conditions: 90% RPMI/10% TSB, 30°C, 24 h, mean of duplicate technical replicates, Figure 4E
Procedure: Staphylococcus strains collected from normal skin from healthy subjects or lesional skin from AD patients were cultured in TSB overnight. Bacteria were washed with PBS and resuspended to 90% RPMI media and 10% TSB. Bacteria (1 × 10^5 CFU/mL) were incu bated with or without human AMPs (LL-37, hBD-2, hBD-3) or mouse cathelin-related AMP (CRAMP) in 90% RPMI media and 10% TSB (100 μL) in each well of a 96-well plate at 30°C for 24 h. Bacterial growth was assessed by measuring OD600. Minimal inhibitory concentration was defined as the lowest concentration which prevent visible bacterial growth (<5% of OD600 value of the con trol well).

For LL-37, the “Survival of CoNS strains without antibiotic activity on pigskin” value [1] was “did not inhibit”, the “Electron microscopy findings in ShA9-ΔLanti after exposure to the single agent alone” value (ShA9-ΔLanti; LL-37 or ShA9-CM alone) was “did not show these changes” and the “Electron microscopy findings in ShA9-ΔLanti after the combination of lantibiotic-containing CM and LL-37” value (ShA9-ΔLanti; combination) was “promote membrane damage”. For the same substance, the “Sensitivity of ShA9-WT to the AMP compared with ShA9-ΔLanti (growth inhibition)” value (ShA9-WT and ShA9-ΔLanti) was “more sensitive”.
